Results on 1 sequence are retold here after paper PMC10079954, “Rational design of phase separating peptides based on phase separating protein sequence of p53” (Scientific Reports, 2023).

Data set [1] can be described thus: Cross-β structure detection with amyloid-sensitive probe Picogreen. Format: physicochemical. The method, then:
Differential interference contrast (DIC) microscopy confirmed that these peptides (0.9–1.8 mM) underwent phase separation in 25 mM HEPES and 0.5 mM EDTA at pH 7.0 (Fig. 2B). To prevent the melting of clusters on the coverslip surface, 2-methacryloyloxyethyl phosphorylcholine (MPC) polymer coating was used[36],[37] (Supplementary Fig. S1). Samples were prepared by sonicating a 2 mM peptide solution or diluting the peptide solution from a 10 mM peptide stock after storage under freezing conditions. Four of the designed peptides, except DPp53N-GSGS-DPp53C2, formed μm-sized spherical clusters. Fluorescence microscopy confirmed the high concentration of peptides labeled with the fluorescent dye Alexa488 in the clusters (Fig. 2B). […] Cross-β structure was also supported by the observation of intrinsic fluorescence upon 400–440 nm excitation[40] (Supplementary Fig. S2). Clusters of aromatic W residues in DPp53N-GSGS-DPp53C2 may lead to the formation of solid aggregates, which is consistent with the results of different systems[21],[34].
The DIC and fluorescence modes of an inverted microscope (IX-73; Olympus, Tokyo, Japan) equipped with microscopic objectives (60 × and 10 ×) and a camera (DP74) were used, as described previously. We used the solution containing 0.9–1.8 mM designed peptide, 0.1 μM Alexa488-labeled peptide, 25 mM HEPES, and 0.5 mM EDTA at pH 7.0. To detect the cross-β structure, picogreen was added at 25 µM for DPp53N-GSGS-DPp53C2 or 2.5 µM for others instead of the Alexa488-labeled peptide. […] DIC and fluorescence images were obtained at 20 or 22 °C. For intrinsic fluorescence measurements, the excitation and detection wavelengths were 440–440 nm and larger than 460 nm, respectively.
Fig. S8 Time course of cross-β structure formation of designed peptides in droplets monitored by DIC and fluorescence images. The fluorescence was detected corresponding to the amyloid marker Picogreen at 2.5 µM in a solution containing 0.9 mM designed peptides, 25 mM HEPES, and 0.5 mM EDTA at pH 7.0 and 22 °C.

The test system of the next data set is p53 dimer (L344A) mutant. In words: Recruitment (enrichment index) of p53 dimer into designed peptide droplets. Set-up: species or system human. To be noted: (GGGS)3-linker versus GSGS-linker droplets; no salt, pH 7.0. The text has this: We prepared p53 tetramer, dimer, and monomer mutants, as described previously[8],[37],[50]. For the p53 tetramer, a thermostable and cysteine-modified human p53 mutant (C124A, C135V, C141V, W146Y, C182S, V203A, R209P, C229Y, H233Y, Y234F, N235K, Y236F, T253V, N268D, C275A, C277A, and K292C) was used[50]. The dimer and monomer mutants of p53 corresponded to L344A and L344P of the tetramer sequence, respectively[8],[37]. These p53 mutants were expressed with a glutathione S-transferase (GST) tag in E. coli and purified after cleavage of the GST tag, as described previously[50],[51]. The oligomeric state of p53 mutants was confirmed using a gel filtration column (Superdex 200; GE Healthcare). p53 mutants were labeled with Atto488 (ATTO-TEC) or Alexa488 (Thermo Fisher) using maleimide chemistry and then purified using a heparin column (GE Healthcare). We prepared Alexa488-labeled FUS-MBP as described previously[37],[39].
Recruitment evaluations were performed following the method described in our previous studies[37],[41]. […] Using the ImageJ software, we calculated the EI values of the individual droplets as follows:2 EI=Idroplet/Isolution, where Idroplet and Isolution represent the average fluorescence intensities of the individual droplets and solutions near the droplets with background substitution, respectively.

Take “RRRVVQRRRRGGGSGGGSGGGSDDDASQEDDD [DPp53N-(GGGS)3-DPp53C1]”: the “Picogreen fluorescence intensity in droplets versus solution” value in data set [1] (Picogreen 2.5 µM, 0.9 mM designed peptide, 25 mM HEPES, 0.5 mM EDTA, pH 7.0, 22 °C) was “higher than that in the solution”. In addition, the “Cross-β structure and state of droplets after long-term incubation” value in data set [1] (long-term incubation) is “gel-like assemblies of the droplets”. The “Increase of average EI of p53 dimer mutant compared to the GSGS-linker peptide” value in the data set on p53 dimer (L344A) mutant came out at 1.5 fold.
